Read-outs that look alike come from different tables or passages of the source.
Target: T1, Mouse TMEM16A (Mus musculus, UniProt Q8BHY3)
T1 construct: expressed in transfected cells; host or cells: HEK-293T
T1 sequence (Q8BHY3 1-960): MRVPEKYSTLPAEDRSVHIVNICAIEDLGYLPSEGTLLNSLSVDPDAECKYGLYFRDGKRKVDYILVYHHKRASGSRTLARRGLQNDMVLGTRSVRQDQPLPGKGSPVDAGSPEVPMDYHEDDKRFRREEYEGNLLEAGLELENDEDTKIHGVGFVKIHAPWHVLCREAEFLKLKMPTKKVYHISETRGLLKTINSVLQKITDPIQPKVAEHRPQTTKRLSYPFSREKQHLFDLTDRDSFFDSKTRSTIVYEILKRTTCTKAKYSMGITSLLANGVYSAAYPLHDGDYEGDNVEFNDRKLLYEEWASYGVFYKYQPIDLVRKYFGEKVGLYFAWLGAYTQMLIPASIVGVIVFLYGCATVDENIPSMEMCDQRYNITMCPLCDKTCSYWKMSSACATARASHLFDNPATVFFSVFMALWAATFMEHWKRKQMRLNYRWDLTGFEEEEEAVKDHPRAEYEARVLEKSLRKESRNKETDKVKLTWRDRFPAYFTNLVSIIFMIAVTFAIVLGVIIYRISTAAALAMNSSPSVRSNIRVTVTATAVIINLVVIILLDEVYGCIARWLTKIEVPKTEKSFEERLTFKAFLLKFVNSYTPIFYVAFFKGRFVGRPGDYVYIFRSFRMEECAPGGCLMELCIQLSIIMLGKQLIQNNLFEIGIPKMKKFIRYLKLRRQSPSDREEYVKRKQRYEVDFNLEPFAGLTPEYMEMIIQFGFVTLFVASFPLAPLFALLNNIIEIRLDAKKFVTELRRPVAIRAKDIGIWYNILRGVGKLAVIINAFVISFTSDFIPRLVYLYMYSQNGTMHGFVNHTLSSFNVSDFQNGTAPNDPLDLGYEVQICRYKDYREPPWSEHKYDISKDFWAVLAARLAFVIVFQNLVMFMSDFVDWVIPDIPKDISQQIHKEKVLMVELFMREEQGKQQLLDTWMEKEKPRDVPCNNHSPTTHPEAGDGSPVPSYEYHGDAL
Experiment: Whole-cell [A9C]ext-inhibition relationship (Hill and Woodhull fits), 12.5 μM [Ca2+]i
Format: cell-based
Description: Mouse TMEM16A (GenBank NM_178642) subcloned into pcDNA3.1 vector was used in this study (Alexander et al., 2013). HEK‐293T cells were cultured as previously described (Smith et al., 2013) and transfected with 0.5–1 μg of TMEM16A and 0.1 μg of CD8 constructs using Fugene HD (Promega, Madison, WI, USA) according to the manufacturer's instructions. Cells were used ~12–36 h after transfection. Transfected cells were visualized using the anti‐CD8 antibody‐coated beads method (Jurman et al., 1994).
The intracellular solution contained (mM) 130 CsCl, 10 EGTA, 1 MgCl2, 10 HEPES and 8 CaCl2 to obtain ~300 nM of [Ca^2+]i; pH was adjusted to 7.3 with NaOH. The intracellular solutions containing ~600 nM, ~1000 nM and ~12.5 μM [Ca^2+]i were obtained by replacing EGTA with equimolar H‐EDTA and by adding 2.1, 3.1 and 7.8 mM CaCl2 respectively. The extracellular solution contained (mM) 150 NaCl, 1 CaCl2, 1 MgCl2, 10 glucose, 10 D‐mannitol and 10 HEPES; pH was adjusted to 7.4 with NaOH. […] A9C was dissolved in DMSO (stock concentration, 300 mM); thus, the final concentration of DMSO was ≤1%. Aliquots of the stock solution were kept at −20° and used within 5 days.
The relationship between [A9C] and TMEM16A current inhibition was obtained by measuring the currents at the end of 250 ms V m steps from +20 to +120 mV in 20 mV increments elicited every 2 s from a holding V m of −70 mV. TMEM16A currents measured in the presence of A9C (I b) were normalized to currents measured in the absence of A9C (I 0) and plotted against [A9C]. The concentration–response curves obtained were fit with the Hill equation of the form: (1) Ib/Io=1/1+A9C/Ki^γ,
where K i is the apparent A9C dissociation constant from the inhibitory site and γ is the coefficient of cooperativity (Hill coefficient).
The relationships between the K i or K d and V m were fitted with the Woodhull equation (Woodhull, 1973): (3) Kx=Kx0exp−δxzFVm/RT.
The subscript ‘x’ stands for either ‘i’ or ‘d’. Thus, K i(0) or K d(0) are the apparent A9C dissociation constants from the inhibitory or activating site at 0 mV, z is the A9C electric valence (−1), δ i or δ d is the fraction of the V m sensed by A9C when bound to the inhibitory or activating site, F is Faraday's constant, R is the universal gas constant and T is the absolute temperature.
To investigate the precise mechanism by which extracellular A9C inhibits TMEM16A channels, macroscopic whole‐cell currents were recorded in the presence of 12.5 μM [Ca^2+]i and in response to 250 ms steps to various V m test pulse from a holding V m of −70 mV. The negative holding V m was used to prevent channel block before the test pulse was elicited. […] The time‐course of this decrease was described by a single‐exponential function characterized by a time constant τ B. The extent of the decrease in current was measured for various [A9C]ext and various V m test pulse and then plotted relative to the current measured in the absence of A9C (I 0) (Figure 3B). The γ values were close to 1 at each V m. In contrast, K i decreased as the V m was increased (Figure 3C). […] Thus, A9C appeared to block TMEM16A channels according to a Woodhull mechanism, consistent with a single A9C molecule blocking the channel pore.

Ki (12.5 μM [Ca2+]i (rounded in Discussion), read-out: K i(0)): ~300 µM
δ i (fraction of Vm sensed at inhibitory site, Woodhull fit) (12.5 μM [Ca2+]i, extracellular A9C): 0.62 ± 0.03
Ki (12.5 μM [Ca2+]i, extracellular A9C, read-out: K i(0) (apparent dissociation constant from inhibitory site at 0 mV)): 322 ± 13 µM
Ki (+80 mV, mouse TMEM16A (rounded in Discussion), read-out: K i): ~50 µM
γ (slope factor, inhibition) (V m 20, 12.5 μM [Ca2+]i): 0.86 ± 0.14 (n = 8)
Ki (V m 20, 12.5 μM [Ca2+]i, [A9C]ext, unit inferred, read-out: K i (Hill fit of inhibition)): 198 ± 47 µM
γ (slope factor, inhibition) (V m 40, 12.5 μM [Ca2+]i): 0.85 ± 0.15 (n = 8)
Ki (V m 40, 12.5 μM [Ca2+]i, [A9C]ext, unit inferred, read-out: K i (Hill fit of inhibition)): 113 ± 26 µM
γ (slope factor, inhibition) (V m 60, 12.5 μM [Ca2+]i): 0.8 ± 0.2 (n = 8)
Ki (V m 60, 12.5 μM [Ca2+]i, [A9C]ext, unit inferred, read-out: K i (Hill fit of inhibition)): 68 ± 20 µM
γ (slope factor, inhibition) (V m 80, 12.5 μM [Ca2+]i): 0.8 ± 0.17 (n = 8)
Ki (V m 80, 12.5 μM [Ca2+]i, [A9C]ext, unit inferred, read-out: K i (Hill fit of inhibition)): 44 ± 10 µM
γ (slope factor, inhibition) (V m 100, 12.5 μM [Ca2+]i): 0.8 ± 0.23 (n = 8)
Ki (V m 100, 12.5 μM [Ca2+]i, [A9C]ext, unit inferred, read-out: K i (Hill fit of inhibition)): 31 ± 12 µM
γ (slope factor, inhibition) (V m 120, 12.5 μM [Ca2+]i): 0.71 ± 0.16 (n = 8)
Ki (V m 120, 12.5 μM [Ca2+]i, [A9C]ext, unit inferred, read-out: K i (Hill fit of inhibition)): 20 ± 8 µM
electric distance of inhibiting binding site (δ i) (Woodhull analysis, rounded): ~ 0.6
penetration into the pore length (voltage field) to reach inhibitory site (from δ i): approximately 60%
γ from Hill fit of [A9C]ext-inhibition relationships (rounded in Discussion): ≈ 1
Compound: O=C(O)c1c2ccccc2cc2ccccc12 [A9C, Anthracene‐9‐carboxylic acid]
